Test results published in US12110507B2, “Method for preparing functional hepatic progenitor cells or hepatic cells, or functional small intestinal epithelial progenitor cells or small intestinal epithelial cells” (priority 2017, dated 2024).
Like-named read-outs stand apart in the source and are kept apart here.

What was measured:
[1] = tested on: hepatic progenitor cells differentiated from SEES5 cells; test: culture of hepatic progenitor cells differentiated from SEES5 cells in the presence of an antibiotic (selection); assay type: cell-based, human; conditions: for colony of cells after culture with antibiotic: concentration and culture period of each antibiotic as in Table 6 (3 days)
[2] = tested on: hepatic progenitor cells differentiated from iPSC-K cells; test: culture of hepatic progenitor cells differentiated from iPSC-K cells in the presence of an antibiotic (selection); assay type: cell-based, human; conditions: for colony of cells after culture with antibiotic: concentration and culture period of each antibiotic as in Table 5
Procedure: The iPSC-K cells were cultured until becoming approximately 80% confluent. […] The colony was dissociated by gentle tapping of the dish and then suspended by the addition of hiPSC medium. The obtained cell suspension was transferred to a dish coated with gelatin, and incubated under conditions of 15 minutes, 37° C., and 5% CO2 to remove the feeder cells. The supernatant was centrifuged, and the recovered iPSC-K cells were suspended in EB medium (having the composition described below).
The EBs were recovered and suspended in XF32 medium (Uchida, H. et al., JCI Insight, 2017; 2 (1): e86492, doi:10.1172/jci.insight.86492). The EBs were placed at a concentration of 20 EBs/well in a 24-well plate coated with collagen, and differentiated into hepatic progenitor cells by adhesion culture at 37° C. for 35 days in 5% CO2. Then, the cells were further cultured for 2 days using modified SCM-6F8 medium (Wang, X. et al., Nature, 2015; 522 (7555): 173-8, doi:10.1038/nature14484, Epub 2015 Jun. 3) supplemented with 3 μg/ml puromycin (Wako Pure Chemical Industries, Ltd., #160-23151).
Functional hepatic progenitor cells were prepared from iPSC-K cells by the same procedures as in the sections (2-1) and (2-2) except that various antibiotics were used instead of puromycin. The antibiotics used and their concentrations, and the number of culture days will be shown below.

[3] = tested on: gut organoid differentiated from Edom-iPS cells; test: culture of gut organoid in the presence of puromycin; assay type: cell-based; conditions: 2 days
Procedure: Gut organoid was prepared from Edom-iPS cells (PLoS Genet., 2011; 7 (5):e1002085, doi.org/10.1371/journal.pgen.1002085), menstrual blood-derived iPS cells, according to the procedures described in Uchida, H. et al., JCI Insight, 2017; 2 (1): e86492. After a lapse of 3 months, the gut organoid was cultured for 2 days in the presence of […] puromycin.

[4] = tested on: functional hepatic progenitor cells prepared from iPSC-O cells; test: selective culture with ammonia of functional hepatic progenitor cells prepared from iPSC-O cells; qRT-PCR after differentiation
[5] = tested on: functional hepatic progenitor cells prepared from SEES5 cells; conditions: 5 mg/ml or 8 mg/ml ammonia, 2 days, after puromycin selection
[6] = conditions of Table 6, data not shown
[7] = hepatic cells differentiated from cells selected with ammonia, qRT-PCR, vs no ammonia selection

Row | Compound | colony of cells after culture with antibiotic [1] | colony of cells after culture with antibiotic [2] | CYP3A4 expression of the cells selected with antibiotic [1, 6] | other results
1 | phleomycin | A colony of the cells was obtained | A colony of the cells was obtained |  | 
2 | CN(CC[C@H](N)CC(=O)N[C@H]1C=C[C@H](n2ccc(N)nc2=O)O[C@@H]1C(=O)O)C(=N)N [blasticidin S] | A colony of the cells was obtained | A colony of the cells was obtained | markedly high level | 
3 | COc1ccc(C[C@H](N)C(=O)N[C@H]2[C@@H](O)[C@H](n3cnc4c(N(C)C)ncnc43)O[C@@H]2CO)cc1 [puromycin] | A colony of the cells was obtained |  | markedly high level | cells obtained after puromycin culture of gut organoid ([3]; 2 mg/ml puromycin): Functional small intestinal epithelial progenitor cells having the ability to metabolize drugs were obtained; cells obtained after puromycin culture of gut organoid ([3]; 400 mg/ml puromycin): Functional small intestinal epithelial progenitor cells having the ability to metabolize drugs were obtained; colony of cells after culture in the presence of puromycin ([2]; 3 μg/ml puromycin, 2 days, modified SCM-6F8 medium): colony of the cells
4 | CN[C@@H]1[C@@H](O)[C@@H](O[C@@H]2[C@@H](O)[C@H](O[C@H]3O[C@H]([C@@H](C)O)[C@@H](O)[C@H](O)[C@H]3N)[C@@H](N)C[C@H]2N)OC[C@]1(C)O [G418] | A colony of the cells was obtained | A colony of the cells was obtained | markedly high level | 
5 | Cc1c(N)nc([C@H](CC(N)=O)NC[C@H](N)C(N)=O)nc1C(=O)N[C@H](C(=O)N[C@H](C)[C@@H](O)[C@H](C)C(=O)N[C@H](C(=O)NCCC1=N[C@@H](c2nc(C(=O)NCCCCN=C(N)N)cs2)CS1)[C@@H](C)O)[C@@H](O[C@@H]1O[C@@H](CO)[C@@H](O)[C@H](O)[C@@H]1O[C@H]1O[C@H](CO)[C@@H](O)[C@H](OC(N)=O)[C@@H]1O)c1cnc[nH]1 [Zeocin™, phleomycin D1] | A colony of the cells was obtained | A colony of the cells was obtained |  | CYP3A4 expression of the cells selected with antibiotic [1]: markedly high level
6 | N [ammonia] |  |  |  | colony formation after selective culture with ammonia ([4]; 5 mg/ml or 8 mg/ml ammonia, 2 days, after puromycin selection): A colony was formed; expression level of CPS1 [4, 7]: Elevation; expression level of CYP3A4 [4, 7]: further elevate; expression level of OTC [4, 7]: Elevation; colony formation after selective culture with ammonia [5]: A colony was formed
